From patent US11471436B2, “Dihydronaphthalene derivative” (ONO PHARMACEUTICAL CO., LTD., priority 2014, dated 2022)

How the values were obtained:
human S1P5 (EDG-8) [1] = molecular target: T1, human S1P5 (EDG-8) (Homo sapiens, UniProt Q9H228); experiment: Inhibition of binding of [33P]-S1P to S1P5, CHO membrane fractions; settings: for IC50: [33P]-S1P binding, membrane fractions of CHO cells overexpressing human S1P5
Method: (§1) Measurement of the Inhibitory Action of the Compound of the Present Invention on Binding of [^33P]-S1P to S1P5 (EDG-8)
(§2) A reaction was carried out in a 96-well microplate by using membrane fractions of Chinese hamster ovary (CHO) cells each of which was made to overexpress human S1P1 (EDG-1) or human S1P5 gene respectively, in an amount of the membrane fraction of 1 mg protein/mL. To each of the wells, 100 μL of a vehicle (DMSO) solution or a ligand solution at a two-fold concentration diluted with Binding Buffer (50 mmol/L, Tris pH 7.5, 5 mmol/L, MgCl2, 0.5% BSA and Complete EDTA free (1 tablet/50 mL)) and […] of 0.16 nmol/L [^33P]-S1P (manufactured by American Radiolabeled Chemicals, Inc.) diluted with Binding Buffer were added, and thereafter, each of membrane fraction solutions (50 μL) was added and the reaction was carried out at room temperature for 60 minutes. After the reaction, suction filtration was carried out by using a 96-well UNIFILTER, and the 96-well microplate was washed with Wash Buffer (50 mmol/L, Tris pH 7.5, 0.5% BSA) (150 mL), and thereafter, was dried at 60° C. for 45 minutes. MicroScint (trade name) 20 (50 μL/well) was added and the plate was covered with TopSeal-A, and thereafter, the radioactivity was measured by using TopCount (manufactured by PerkinElmer Inc.).

human S1P1 (EDG-1) [2] = molecular target: T2, human S1P1 (EDG-1) (Homo sapiens, UniProt P21453); experiment: Inhibition of binding of [33P]-S1P to S1P1, CHO membrane fractions; settings: [33P]-S1P binding, membrane fractions of CHO cells overexpressing human S1P1
Method: as §1, §2

human S1P5 (EDG-8) [3] = molecular target: T1, human S1P5 (EDG-8); experiment: S1P receptor agonist activity by monitoring intracellular cyclic AMP, CHO cells overexpressing S1P5; format: cell-based; settings: forskolin-stimulated CHO cells overexpressing human S1P5, read-out: EC 50 value with regard to S1P5 receptor
Method: (§3) Evaluation of S1P Receptor Agonist Activities of the Compound of the Present Invention by Monitoring the Concentration of Produced Intracellular Cyclic AMP
(§4) CHO cells which were made to overexpress either human S1P1 (EDG-1) or human S1P5 (EDG-8) gene respectively were cultured in Ham's F12 Medium (manufactured by Gibco-BRL) containing 10% FBS (fetal bovine serum), penicillin/streptomycin and geneticin (0.25 mg/mL). The medium was removed from the cultured cells, the cultured cells were washed once with phosphate-buffered saline, and the cultured cells were treated with a vehicle (DMSO) solution or a compound solution each of which was diluted with Buffer (Hanks' balanced salt solution containing 20 mmol/L HEPES, 0.1 or 0.2% BSA, 1 mmol/L IBMX and 50 μmol/L forskolin) at 37° C. for 30 minutes. Thereafter, the cultured cells were washed once with phosphate-buffered saline. After lysing the cells, the concentration of cyclic AMP in the cell lysate were measured by using cAMP Assay Kit (GE Healthcare).

human S1P1 (EDG-1) [4] = molecular target: T2, human S1P1 (EDG-1); experiment: S1P receptor agonist activity by monitoring intracellular cyclic AMP, CHO cells overexpressing S1P1; format: cell-based; settings: forskolin-stimulated CHO cells overexpressing human S1P1, read-out: EC 50 value with regard to S1P1 receptor
Method: as §3, §4

T1 sequence (Q9H228 whole entry): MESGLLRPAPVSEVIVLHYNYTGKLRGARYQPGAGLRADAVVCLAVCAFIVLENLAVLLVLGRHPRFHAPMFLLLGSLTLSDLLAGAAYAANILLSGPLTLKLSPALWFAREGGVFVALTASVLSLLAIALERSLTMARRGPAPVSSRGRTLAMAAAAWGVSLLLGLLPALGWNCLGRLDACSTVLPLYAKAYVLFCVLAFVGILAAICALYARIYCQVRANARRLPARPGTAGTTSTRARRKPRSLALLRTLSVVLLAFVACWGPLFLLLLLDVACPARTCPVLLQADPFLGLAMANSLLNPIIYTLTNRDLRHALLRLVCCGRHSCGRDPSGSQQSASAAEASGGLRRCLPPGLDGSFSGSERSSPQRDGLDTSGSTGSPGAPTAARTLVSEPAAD
T2 sequence (P21453 whole entry): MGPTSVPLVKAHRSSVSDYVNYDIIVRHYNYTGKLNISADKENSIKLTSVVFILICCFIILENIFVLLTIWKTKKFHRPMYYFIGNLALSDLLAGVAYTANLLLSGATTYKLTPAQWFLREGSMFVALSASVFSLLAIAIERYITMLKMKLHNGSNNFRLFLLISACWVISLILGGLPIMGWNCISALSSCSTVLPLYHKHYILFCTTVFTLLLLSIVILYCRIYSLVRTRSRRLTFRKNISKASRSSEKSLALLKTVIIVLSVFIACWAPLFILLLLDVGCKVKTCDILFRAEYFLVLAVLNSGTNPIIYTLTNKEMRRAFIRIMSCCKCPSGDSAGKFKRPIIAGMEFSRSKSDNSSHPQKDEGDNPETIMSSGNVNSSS

Compound	IC50 (human S1P5 (EDG-8) [1]) [nM]	IC50 (human S1P1 (EDG-1) [2]) [nM]	EC50 (human S1P5 (EDG-8) [3]) [nM]	EC50 (human S1P1 (EDG-1) [4]) [µM]	balance of an S1P5 receptor agonist activity against an S1P1 receptor agonist activity (human S1P5 (EDG-8) [1]; conclusion in words from binding IC50 values S1P1 vs S1P5)
CCCCc1ccc(Oc2ccc3c(c2)CCC(CN2CC(C(=O)O)C2)=C3C)cc1.Cl [Comparative Compound A, 1-{[6-(4-butylphenoxy)-1-methyl-3,4-dihydronaphthalen-2-yl]methyl}azetidine-3-carboxylic acid hydrochloride, reference compound]	76	475	–	–	had both S1P1 and S1P5 receptor agonist activities
O=C(O)C1CN(CC2=Cc3ccc(OC4CCCCC4)cc3CC2)C1 [Example 9 (2), 1-{[6-(Cyclohexyloxy)-3,4-dihydro-2-naphthalenyl]methyl}-3-azetidinecarboxylic acid]	57.2	> 10000	–	–	–
CC1Cc2cc(OC3CCCCC3)ccc2C=C1CN1CC(C(=O)O)C1 (stereo not shown) [Example 21, 1-{[6-(Cyclohexyloxy)-3-methyl-3,4-dihydro-2-naphthalenyl]methyl}-3-azetidinecarboxylic acid]	16	> 10000	0.2	9.99	–

Now from value to compound, other results behind:

IC50 (human S1P5 (EDG-8) [1]) [nM]	IC50 (human S1P1 (EDG-1) [2]) [nM]	EC50 (human S1P5 (EDG-8) [3]) [nM]	EC50 (human S1P1 (EDG-1) [4]) [µM]	Compound	balance of an S1P5 receptor agonist activity against an S1P1 receptor agonist activity (human S1P5 (EDG-8) [1]; conclusion in words from binding IC50 values S1P1 vs S1P5)
22.4	> 10000	–	–	CC1=C(CN2CC(C(=O)O)C2)CCc2cc(-c3ccccc3)ccc21 [Example 14 (1), 1-[(1-Methyl-6-phenyl-3,4-dihydro-2-naphthalenyl)methyl]-3-azetidinecarboxylic acid]	–
67.2	> 10000	–	–	CC1=C(CN2CC(C(=O)O)C2)CCc2cc(-c3ccccn3)ccc21 [Example 14 (3), 1-{[1-Methyl-6-(2-pyridinyl)-3,4-dihydro-2-naphthalenyl]methyl}-3-azetidinecarboxylic acid]	–
